{
  "source": "patent US6350780B1",
  "about": "“Methods and compositions for drug delivery” (Allergan Sales, Inc., priority 1995, dated 2002)",
  "key": {"[1]": {"tested_on": "cultured human non-pigmented ciliary epithelial (NPE) cells", "experiment": "regulatory volume decrease (RVD) following hyposmotic swelling of cultured NPE cells", "format": "cell-based", "conditions": "20 µM BAPTA-AM loaded 30 minutes in isosmotic (290 mOsm) solution, then hyposmotic (198 mOsm) solution; cell volume by Coulter Counter; FIG. 1", "protocol": "In this example, NPE cells were loaded in an isosmotic (290 mOsm) solution containing 20 µM BAPTA-AM for 30 minutes prior to suspension in a hyposmotoic (198 mOsm) solution. Control cells were subjected to the same hyposmotic solution but without prior loading with BAPTA. Changes in cell volume were measured using a Coulter Counter interfaced to a Coulter Channelyzer. It is noted that, following osmotic swelling, control cells regulate towards their original isosmotic volume while BAPTA-loaded cells remain swollen. The above findings indicate that intracellular BAPTA via chelation of Ca^2+i inhibits solute and osmotically obliged H2O efflux. Because the Ca^2+i-dependent ion flux pathways activated following osmotic cell swelling of NPE cells are involved in aqueous secretion, BAPTA will inhibit aqueous humor formation and, thus, lower IOP."}, "[2]": {"tested_on": "eye of a mammal suffering high intraocular pressure", "experiment": "intraocular pressure after instillation into the eye of a mammal suffering high intraocular pressure", "format": "in vivo", "conditions": "topical instillation in ophthalmically acceptable carrier; mammal with high intraocular pressure", "protocol": "This compound comprises the calcium chelator BAPTA blocked with three acetoxymethyl ester (AM) moieties, and containing a single N-linked pACE group in place. The compound is dissolved in an ophthalmically acceptable carrier for topical delivery to the eye. As indicated above, such prodrug-pACE compounds are specifically targeted to cilliary epithelial and retinal cells, without substiantially affecting other cell types. In the above formulation, based on Formula B, the compound will bind acetylcholine receptors and cell surface acetylcholinesterase without being hydrolyzed thereby. The electronically neutral prodrug is then transported or permitted to penetrate the cell membrane, where cytoplasmic esterases convert the prodrug-pACE into the tetraacetic acid form of BAPTA capable of modulating the intracellular concentration of free Ca^++, thereby providing a neuroprotective function.\nThe compound is instilled into the eye of a mammal suffering high intraocular pressure. The prodrug-pACE compound passes through the cornea and the drug is concentrated within ciliary epithelial and retinal ganglion cells."}},
  "data": [
    {"compound": "CC(=O)OCOC(=O)CN(CC(=O)OCOC(C)=O)c1ccccc1OCCOc1ccccc1N(CC(=O)OCOC(C)=O)CC(=O)OCOC(C)=O", "note": "[BAPTA-AM, acetoxymethyl ester of BAPTA]", "values": [
      {"measurement": "effect on regulatory volume decrease (RVD)", "setting": "[1]", "result": "totally depress"}
    ]},
    {"compound": "CC(=O)OCOC(=O)CN(CC(=O)OCOC(C)=O)c1ccccc1OCCOc1ccccc1N(CC(=O)OCOC(C)=O)CC(=O)OCOC(=O)CCC(=O)C(C)(C)C", "note": "[Example 2]", "values": [
      {"measurement": "intraocular pressure following treatment versus prior to treatment", "setting": "[2]", "result": "significantly lower"}
    ]}
  ]
}
